Measured values as given in patent US8575156B2, “Cyclic inhibitors of 11β-hydroxysteroid dehydrogenase 1” (Vitae Pharmaceuticals, Inc., priority 2007, dated 2013).

Target: 11β-HSD1 (Homo sapiens, UniProt P28845)
Assay: biochemical
Settings: for IC50: IC50 Range, Biological Test Example 1, microsomes from CHO cells overexpressing human 11β-HSD1; for inhibition at 0.1111 µM: read-out: Average % inhibition at 111.1 nM, Biological Test Example 1, 111.1 nM compound; for inhibition at 0.1 µM: read-out: Average % inhibition at 100 nM, Biological Test Example 1, 100 nM compound

Chain of 11β-HSD1 (P28845 whole entry): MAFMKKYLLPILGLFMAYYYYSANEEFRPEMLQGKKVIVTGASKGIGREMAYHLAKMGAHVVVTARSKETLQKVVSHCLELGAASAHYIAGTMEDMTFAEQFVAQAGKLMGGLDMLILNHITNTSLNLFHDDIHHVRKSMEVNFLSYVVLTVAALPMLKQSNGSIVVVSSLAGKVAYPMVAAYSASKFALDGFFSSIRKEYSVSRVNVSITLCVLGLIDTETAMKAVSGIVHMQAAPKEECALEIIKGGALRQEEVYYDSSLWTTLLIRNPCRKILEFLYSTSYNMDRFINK

IC50 [nM]	inhibition at 0.1111 µM [%]	inhibition at 0.1 µM [%]	Compound
100 to 1000	16.2		C[C@@H](c1cccc(OCC(=O)N2CCNCC2)c1)N1CCC(C)(c2ccccc2)OC1=O (mixture of isomers) [EXAMPLE 94, (R/S)-6-methyl-3-((S)-1-(3-(2-oxo-2-(piperazin-1-yl)ethoxy)phenyl)ethyl)-6-phenyl-1,3-oxazinan-2-one]
100 to 1000	45.3		C[C@@H](c1cccc(OCC(C)(C)O)c1)N1CCC(C)(c2ccccc2)OC1=O (mixture of isomers) [EXAMPLE 93]
< 100		92.8	C[C@@H](c1ccc(-c2ccc(F)cc2F)cc1)N1CC[C@](CC(O)CO)(c2ccc(F)cc2)OC1=O (single isomer, unassigned) [EXAMPLE 52 Isomer 1]
< 100	87.6		C[C@@H](c1ccccc1)N1CCC(C)(c2ccccc2)OC1=O (single isomer, unassigned) [EXAMPLE 82 Isomer 1]
100 to 1000	50.3		C[C@H](c1ccccc1)N1CCC(C)(c2ccccc2)OC1=O (single isomer, unassigned) [EXAMPLE 83 Isomer 1]
< 100	74.8		COc1cccc([C@H](C)N2CCC(C)(c3ccccc3)OC2=O)c1 (single isomer, unassigned) [EXAMPLE 84 Isomer 1]
< 100	93.1		COc1ccc([C@H](C)N2CCC(C)(c3ccccc3)OC2=O)cc1 (single isomer, unassigned) [EXAMPLE 85 Isomer 1]
100 to 1000	43.3		Cc1ccccc1C1(C)CCN([C@@H](C)c2ccccc2)C(=O)O1 (single isomer, unassigned) [EXAMPLE 86 Isomer 1]
100 to 1000	13.3		Cc1cccc(C2(C)CCN([C@@H](C)c3ccccc3)C(=O)O2)c1 (single isomer, unassigned) [EXAMPLE 87 Isomer 1]
100 to 1000	74.4		Cc1ccc(C2(C)CCN([C@@H](C)c3ccccc3)C(=O)O2)cc1 (single isomer, unassigned) [EXAMPLE 88 Isomer 1]
< 100	91		C=CC[C@]1(c2ccc(F)cc2)CCN([C@@H](C)c2ccccc2)C(=O)O1 (single isomer, unassigned) [EXAMPLE 95 Isomer 1]
100 to 1000	52.8		C[C@@H](c1ccccc1)N1CC[C@@](CCO)(c2ccc(F)cc2)OC1=O (single isomer, unassigned) [EXAMPLE 97 Isomer 1]
< 100	88.2		C[C@@H](c1ccccc1)N1CC[C@](CCO)(c2ccc(F)cc2)OC1=O (single isomer, unassigned) [EXAMPLE 97 Isomer 2]
< 100		90.5	C=CC[C@@]1(c2ccc(F)cc2)CCN([C@@H](C)c2ccc(Br)cc2)C(=O)O1 (single isomer, unassigned) [EXAMPLE 110 Isomer 1]
< 100	95	96.6	C=CC[C@]1(c2ccc(F)cc2)CCN([C@@H](C)c2ccc(Br)cc2)C(=O)O1 (single isomer, unassigned) [EXAMPLE 110 Isomer 2]
< 100	90.9		C=CC[C@@]1(c2ccc(F)cc2)CCN([C@@H](C)c2ccc(-c3ccc(F)cc3F)cc2)C(=O)O1 (single isomer, unassigned) [EXAMPLE 111 Isomer 1]
< 100	58.9		C=CC[C@]1(c2ccc(F)cc2)CCN([C@@H](C)c2ccc(-c3ccc(F)cc3F)cc2)C(=O)O1 (single isomer, unassigned) [EXAMPLE 111 Isomer 2]

IC50 [nM]	inhibition at 0.1111 µM [%]	inhibition at 0.1 µM [%]	Compound
< 100	83.2		C=CC1(c2ccc(F)cc2)CCN([C@@H](C)c2ccccc2)C(=O)O1 (single isomer, unassigned) [EXAMPLE 113 Isomer 1]
< 100		92.2	C=CCC1(c2ccc(F)cc2)CCN([C@@H](CC)c2ccc(Br)cc2)C(=O)O1 (single isomer, unassigned) [EXAMPLE 130 Isomer 1]
< 100			CC(O)C[C@]1(c2ccc(F)cc2)CCN([C@@H](C)c2ccc(-c3ccc(F)cc3F)cc2)C(=O)O1 (single isomer, unassigned) [EXAMPLE 137 Isomer 1]
< 100	54.4		CC[C@@H](c1ccc(Br)cc1)N1CCC(CCO)(c2ccc(F)cc2)OC1=O (single isomer, unassigned) [EXAMPLE 143 Isomer 1]
< 100	90.6		C[C@@H](c1ccc(Br)cc1)N1CC[C@](CC(O)CO)(c2ccc(F)cc2)OC1=O (single isomer, unassigned) [EXAMPLE 144 Isomer 1]
< 100		97.4	C=CCC1(c2cccs2)CCN([C@@H](C)c2ccc(Br)cc2)C(=O)O1 (single isomer, unassigned) [EXAMPLE 157 Isomer 1]
< 100	93.5		C=CCC1(c2cccs2)CCN([C@@H](C)c2ccc(-c3ccc(F)cc3)cc2)C(=O)O1 (single isomer, unassigned) [EXAMPLE 160 Isomer 1]
< 100	66.8		CC1CC(CCO)(c2ccc(F)cc2)OC(=O)N1[C@@H](C)c1ccc(Br)cc1 (single isomer, unassigned) [EXAMPLE 163 Isomer 1]
< 100	79	73.7	CC(O)C[C@@]1(c2cccs2)CCN([C@@H](C)c2ccc(-c3ccc(F)cc3)cc2)C(=O)O1 (single isomer, unassigned) [EXAMPLE 167 Isomer 1]
< 100		97.2	C[C@@H](c1ccc(-c2ccc(F)cc2)cc1)N1CC[C@](CC(O)CO)(c2ccccc2)OC1=O (single isomer, unassigned) [EXAMPLE 168 Isomer 1]
< 100		96.7	C[C@@H](c1ccc(-c2ccc(F)cc2F)cc1)N1CC[C@](CC(O)CO)(c2ccccc2)OC1=O (single isomer, unassigned) [EXAMPLE 173 Isomer 1]
< 100		95.2	C=CCC1(c2ccc(F)cc2)CCN([C@@H](C)c2ccc(C)cc2)C(=O)O1 (single isomer, unassigned) [EXAMPLE 189 Isomer 1]
< 100			C=CCC1(c2ccc(F)cc2)CCN([C@@H](C)c2ccc(OC)cc2)C(=O)O1 (single isomer, unassigned) [EXAMPLE 193 Isomer 1]
< 100		101	C=CCC1(c2ccc(F)cc2)CCN([C@@H](C)c2ccc(Cl)cc2)C(=O)O1 (single isomer, unassigned) [EXAMPLE 196 Isomer 1]
< 100		90.4	C[C@@H](C1CCCCC1)N1CC[C@](CC(O)CO)(c2ccc(F)cc2)OC1=O (single isomer, unassigned) [EXAMPLE 197 Isomer 1]
< 100			CC(C)C1(CCCO)CCN([C@@H](C)c2ccc(Br)cc2)C(=O)O1 (single isomer, unassigned) [EXAMPLE 200 Isomer 1]
< 100		88.6	CC(O)C[C@]1(c2ccc(F)cc2)CCN([C@@H](C)c2ccc(Cl)cc2)C(=O)O1 (single isomer, unassigned) [EXAMPLE 203 Isomer 1]
